± gives the expanded uncertainty stated by the source.
Assays:
[1] = Liquid; for mass density: 298.15 K, 101.3 kPa, Vibrating tube method; for vapor or sublimation pressure: Ebulliometric method (Recirculating still)
[2] = refractive index (Na D-line) (dimensionless); settings: 298.15 K; 101.3 kPa; Liquid; Standard Abbe refractometry
[3] = Boiling temperature at pressure P; settings: 101.3 kPa; Liquid; Ebulliometric method (Recirculating still)

For `CCCCO` [butan-1-ol], the mass density [1] was 805.94 ± 5 kg/m3, the “vapor or sublimation pressure” value ([1]; 367.03 K) was 40 ± 2 kPa and the “vapor or sublimation pressure” value ([1]; 381.07 K) was 70 ± 2 kPa. The refractive index [2] was 1.3971 ± 0.01.
With `CCCCOC(=O)OCCCC` [dibutyl carbonate] the mass density [1] was 925.17 ± 5 kg/m3, the “vapor or sublimation pressure” value ([1]; 383.16 K) was 5 ± 2 kPa and the “vapor or sublimation pressure” value ([1]; 403.77 K) was 10 ± 2 kPa. The “vapor or sublimation pressure” value ([1]; 410.07 K) was 15 ± 2 kPa, the “vapor or sublimation pressure” value ([1]; 420.73 K) was 20 ± 2 kPa and the “vapor or sublimation pressure” value ([1]; 427.86 K) was 25 ± 2 kPa. For the same compound, the “vapor or sublimation pressure” value ([1]; 434.15 K) was 30 ± 2 kPa, the “vapor or sublimation pressure” value ([1]; 439.03 K) was 35 ± 2 kPa and the “vapor or sublimation pressure” value ([1]; 443.67 K) was 40 ± 2 kPa. The “vapor or sublimation pressure” value ([1]; 443.78 K) was 40 ± 2 kPa, the “vapor or sublimation pressure” value ([1]; 449.33 K) was 45 ± 2 kPa and the “vapor or sublimation pressure” value ([1]; 453.17 K) was 50 ± 2 kPa. For the same compound, the “vapor or sublimation pressure” value ([1]; 456.63 K) was 55 ± 2 kPa, the “vapor or sublimation pressure” value ([1]; 459.47 K) was 60 ± 2 kPa and the “vapor or sublimation pressure” value ([1]; 461.31 K) was 65 ± 2 kPa. The “vapor or sublimation pressure” value ([1]; 463.87 K) was 70 ± 2.1 kPa, the “vapor or sublimation pressure” value ([1]; 464.01 K) was 70 ± 2.1 kPa and the “vapor or sublimation pressure” value ([1]; 465.41 K) was 75 ± 2 kPa. The “vapor or sublimation pressure” value ([1]; 468.56 K) was 80 ± 2 kPa, the “vapor or sublimation pressure” value ([1]; 470.27 K) was 85 ± 2 kPa and the “vapor or sublimation pressure” value ([1]; 472.83 K) was 90 ± 2 kPa. For the same compound, the “vapor or sublimation pressure” value ([1]; 475.91 K) was 95 ± 2 kPa, the “vapor or sublimation pressure” value ([1]; 478.02 K) was 100 ± 2.1 kPa and the “vapor or sublimation pressure” value ([1]; 478.18 K) was 100 ± 2 kPa. The “Boiling temperature at pressure P” value [3] was 204.50 ± 0.44 °C and the refractive index [2] was 1.4115 ± 0.01.
In the case of `CO` [methanol], the mass density [1] is reported as 786.61 ± 5 kg/m3, the “vapor or sublimation pressure” value ([1]; 315.78 K) is reported as 40 ± 2 kPa and the “vapor or sublimation pressure” value ([1]; 328.56 K) is reported as 70 ± 2 kPa. For the same compound, the “vapor or sublimation pressure” value ([1]; 337.33 K) was 100 ± 2 kPa, the “Boiling temperature at pressure P” value [3] was 64.68 ± 0.44 °C and the refractive index [2] was 1.3266 ± 0.01.
